Measurements taken from US11208400B2, “Substituted 6-(1H-pyrazol-1-yl)pyrimidin-4-amine derivatives and uses thereof” (Bayer Aktiengesellschaft, priority 2016, dated 2021).

What follows are compounds tested against T1, human Npt2a (Homo sapiens, UniProt Q06495) (assay: Npt2a activity cell based assay, membrane potential dye, CHO T-REx hNpt2a cells). Conditions: doxycycline-induced, depolarization by sodium phosphate influx, average or median values if tested more than once.
T1 construct: expressed in transfected cells
T1 sequence (Q06495 1-639): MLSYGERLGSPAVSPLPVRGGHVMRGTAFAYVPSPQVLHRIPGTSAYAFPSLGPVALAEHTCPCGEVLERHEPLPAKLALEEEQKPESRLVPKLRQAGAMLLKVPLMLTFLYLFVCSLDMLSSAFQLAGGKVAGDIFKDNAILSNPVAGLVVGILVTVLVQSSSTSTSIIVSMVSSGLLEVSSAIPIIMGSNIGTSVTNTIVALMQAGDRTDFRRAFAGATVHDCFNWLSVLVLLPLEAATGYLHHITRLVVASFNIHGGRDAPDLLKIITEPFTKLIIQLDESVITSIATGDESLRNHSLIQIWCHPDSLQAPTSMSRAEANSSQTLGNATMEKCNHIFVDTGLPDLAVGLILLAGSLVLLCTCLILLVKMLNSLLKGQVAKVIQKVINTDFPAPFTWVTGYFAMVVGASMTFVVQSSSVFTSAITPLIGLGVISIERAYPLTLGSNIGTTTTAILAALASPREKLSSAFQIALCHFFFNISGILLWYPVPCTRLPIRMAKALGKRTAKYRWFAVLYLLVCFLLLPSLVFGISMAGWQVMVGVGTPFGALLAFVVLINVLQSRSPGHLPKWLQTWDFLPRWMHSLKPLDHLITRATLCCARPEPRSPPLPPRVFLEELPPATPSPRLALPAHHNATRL
Method in brief: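 Cells were doxycycline-induced CHO T-REx hNpt2a, dye-loaded and pretreated 5 min at RT with 1 nM–50 μM compound in Na-free pH 7.4 buffer. IC50 was fit to the post/pre-trigger fluorescence ratio.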

SMILES	IC50 [nM]
Cc1cc(C(F)F)n(-c2cc(Nc3c(C)c(-c4ccc(C(F)F)cc4)nn3C)ncn2)n1 [Example 408, 6-[5-(difluoromethyl)-3-methyl-1H-pyrazol-1-yl]-N-{3-[4-(difluoromethyl)phenyl]-1,4-dimethyl-1H-pyrazol-5-yl}pyrimidin-4-amine]	6
CCOC(=O)c1c(C)nn(-c2cc(Nc3nn(CC4CC4)c(-c4ccc(F)cc4)c3CC)ncn2)c1C [Example 145, ethyl 1-(6-{[1-(cyclopropylmethyl)-4-ethyl-5-(4-fluorophenyl)-1H-pyrazol-3-yl]amino}pyrimidin-4-yl)-3,5-dimethyl-1H-pyrazole-4-carboxylate]	170
Cc1cc(C)n(-c2cc(Nc3nn(C)c(-c4ccc(F)cc4F)c3Cl)ncn2)n1 [Example 55, N-[4-chloro-5-(2,4-difluorophenyl)-1-methyl-1H-pyrazol-3-yl]-6-(3,5-dimethyl-1H-pyrazol-1-yl)pyrimidin-4-amine]	133
Cc1c(-c2ccc(C#N)cc2)nn(CC2CC2)c1Nc1cc(-n2nc(C)c3ncccc32)ncn1 [Example 232, 4-[1-(cyclopropylmethyl)-4-methyl-5-{[6-(3-methyl-1H-pyrazolo[4,3-b]pyridin-1-yl)pyrimidin-4-yl]amino}-1H-pyrazol-3-yl]benzonitrile]	6
CCOC(=O)c1c(C)nn(-c2cc(Nc3n[nH]c(-c4ccc(F)cc4)c3C)ncn2)c1C [Example 60, ethyl 1-(6-{[5-(4-fluorophenyl)-4-methyl-1H-pyrazol-3-yl]amino}pyrimidin-4-yl)-3,5-dimethyl-1H-pyrazole-4-carboxylate]	43
CCc1c(-c2ccc(F)cc2)nn(C)c1Nc1cc(-n2nc(C)c(-c3nnc(C)o3)c2C)ncn1 [Example 226, 6-[3,5-dimethyl-4-(5-methyl-1,3,4-oxadiazol-2-yl)-1H-pyrazol-1-yl]-N-[4-ethyl-3-(4-fluorophenyl)-1-methyl-1H-pyrazol-5-yl]pyrimidin-4-amine]	190
CCc1c(Nc2cc(-n3nc(C)c(C#N)c3C)ncn2)n[nH]c1-c1ccc(F)cc1 [Example 108, 1-(6-{[4-ethyl-5-(4-fluorophenyl)-1H-pyrazol-3-yl]amino}pyrimidin-4-yl)-3,5-dimethyl-1H-pyrazole-4-carbonitrile]	94
CCOC(=O)c1c(C)nn(-c2cc(Nc3c(C)c(-c4ccc(F)cn4)nn3CCOC)ncn2)c1C [Example 545, ethyl 1-(6-{[3-(5-fluoropyridin-2-yl)-1-(2-methoxyethyl)-4-methyl-1H-pyrazol-5-yl]amino}pyrimidin-4-yl)-3,5-dimethyl-1H-pyrazole-4-carboxylate]	14
CCOC(=O)Cc1c(C)nn(-c2cc(Nc3c(C)c(-c4ccc(F)cc4)nn3CC3CC3)ncn2)c1C [Example 281, ethyl [1-(6-{[1-(cyclopropylmethyl)-3-(4-fluorophenyl)-4-methyl-1H-pyrazol-5-yl]amino}pyrimidin-4-yl)-3,5-dimethyl-1H-pyrazol-4-yl]acetate]	16
CCOC(=O)c1c(C)nn(-c2cc(Nc3c(CC)c(-c4ccc(F)cc4)nn3C)ncn2)c1C [Example 155, ethyl 1-(6-{[4-ethyl-3-(4-fluorophenyl)-1-methyl-1H-pyrazol-5-yl]amino}pyrimidin-4-yl)-3,5-dimethyl-1H-pyrazole-4-carboxylate]	9
CCc1c(-c2ccc(F)cc2)nn(Cc2nnn(C)n2)c1Nc1cc(-n2nc(C)cc2C)ncn1 [Example 388, 6-(3,5-dimethyl-1H-pyrazol-1-yl)-N-{4-ethyl-3-(4-fluorophenyl)-1-[(2-methyl-2H-tetrazol-5-yl)methyl]-1H-pyrazol-5-yl}pyrimidin-4-amine]	64
Cc1nn(-c2cc(Nc3[nH]nc(-c4ccc(F)cc4)c3C3CC3)ncn2)c(C)c1Cl [Example 8, 6-(4-chloro-3,5-dimethyl-1H-pyrazol-1-yl)-N-[4-cyclopropyl-3-(4-fluorophenyl)-1H-pyrazol-5-yl]pyrimidin-4-amine]	38
Cc1c(-c2ccc(F)cc2)nn(CC2CC2)c1Nc1cc(-n2ncc3c2CN(C(=O)OC(C)(C)C)C3)ncn1 [Example 431, tert-butyl 1-(6-{[1-(cyclopropylmethyl)-3-(4-fluorophenyl)-4-methyl-1H-pyrazol-5-yl]amino}pyrimidin-4-yl)-4,6-dihydropyrrolo[3,4-c]pyrazole-5(1H)-carboxylate]	69
Cc1cc(C)n(-c2cc(Nc3c(Cl)c(-c4ccc(F)cc4)nn3CC(F)F)ncn2)n1 [Example 129, N-[4-chloro-1-(2,2-difluoroethyl)-3-(4-fluorophenyl)-1H-pyrazol-5-yl]-6-(3,5-dimethyl-1H-pyrazol-1-yl)pyrimidin-4-amine]	78
COc1ccc(-c2nn(CC3CC3)c(Nc3cc(-n4nc(C)cc4C(F)F)ncn3)c2C)cc1 [Example 489, N-[1-(cyclopropylmethyl)-3-(4-methoxyphenyl)-4-methyl-1H-pyrazol-5-yl]-6-[5-(difluoromethyl)-3-methyl-1H-pyrazol-1-yl]pyrimidin-4-amine]	270
Cc1cc(C(F)F)n(-c2cc(Nc3c(Cl)c(-c4ccc(C#N)cc4)nn3CC3CC3)ncn2)n1 [Example 445, 4-[4-chloro-1-(cyclopropylmethyl)-5-({6-[5-(difluoromethyl)-3-methyl-1H-pyrazol-1-yl]pyrimidin-4-yl}amino)-1H-pyrazol-3-yl]benzonitrile]	12
Cc1nn(-c2cc(Nc3c(C)c(-c4ccc(F)cc4)nn3CC3CC3)ncn2)c(C(F)F)c1Cl [Example 176, 6-[4-chloro-5-(difluoromethyl)-3-methyl-1H-pyrazol-1-yl]-N-[1-(cyclopropylmethyl)-3-(4-fluorophenyl)-4-methyl-1H-pyrazol-5-yl]pyrimidin-4-amine]	13
Cc1nn(-c2cc(Nc3c(C)c(-c4ccc(F)cc4)nn3CC3CC3)ncn2)c(C)c1C(O)C1CC1 (racemic) [Example 405, (±)-cyclopropyl[1-(6-{[1-(cyclopropylmethyl)-3-(4-fluorophenyl)-4-methyl-1H-pyrazol-5-yl]amino}pyrimidin-4-yl)-3,5-dimethyl-1H-pyrazol-4-yl]methanol]	14
Cc1nn(-c2cc(Nc3c(C)c(-c4ccc(C(F)F)nc4)nn3C)ncn2)c(C)c1Cl [Example 474, 6-(4-chloro-3,5-dimethyl-1H-pyrazol-1-yl)-N-{3-[6-(difluoromethyl)pyridin-3-yl]-1,4-dimethyl-1H-pyrazol-5-yl}pyrimidin-4-amine]	234
Cc1c(-c2ccc(F)cc2)nn(CC2CC2)c1Nc1cc(-n2nc3c(c2C)C(C)(O)CC3)ncn1 (single isomer, unassigned) [Example 516, 2-(6-{[1-(cyclopropylmethyl)-3-(4-fluorophenyl)-4-methyl-1H-pyrazol-5-yl]amino}pyrimidin-4-yl)-3,4-dimethyl-2,4,5,6-tetrahydrocyclopenta[c]pyrazol-4-ol]	31
CCOC(=O)c1c(C)nn(-c2cc(Nc3nn(CC(F)F)c(-c4ccc(F)cc4)c3CC)ncn2)c1C [Example 177, ethyl 1-(6-{[1-(2,2-difluoroethyl)-4-ethyl-5-(4-fluorophenyl)-1H-pyrazol-3-yl]amino}pyrimidin-4-yl)-3,5-dimethyl-1H-pyrazole-4-carboxylate]	41
COc1c(-c2ccc(C#N)cc2)nn(C)c1Nc1cc(-n2nc(C)cc2C)ncn1 [Example 444, 4-(5-{[6-(3,5-dimethyl-1H-pyrazol-1-yl)pyrimidin-4-yl]amino}-4-methoxy-1-methyl-1H-pyrazol-3-yl)benzonitrile]	120
CCc1c(-c2ccc(F)cc2)nn(C)c1Nc1cc(-n2nc(C)c3ccncc32)ncn1 [Example 206, N-[4-ethyl-3-(4-fluorophenyl)-1-methyl-1H-pyrazol-5-yl]-6-(3-methyl-1H-pyrazolo[3,4-c]pyridin-1-yl)pyrimidin-4-amine]	9
Cc1nn(-c2cc(Nc3c(C)c(-c4ccncc4)nn3CC3CC3)ncn2)c(C)c1Cl [Example 351, 6-(4-chloro-3,5-dimethyl-1H-pyrazol-1-yl)-N-[1-(cyclopropylmethyl)-4-methyl-3-(pyridin-4-yl)-1H-pyrazol-5-yl]pyrimidin-4-amine]	65
Cc1nn(-c2cc(Nc3c(C)c(-c4ccc(C#N)cc4)nn3CC3CC3)ncn2)c(C)c1C(C)(O)C(F)(F)F (racemic) [Example 322, (±)-4-{1-(cyclopropylmethyl)-5-[(6-{3,5-dimethyl-4-[(2S)-1,1,1-trifluoro-2-hydroxypropan-2-yl]-1H-pyrazol-1-yl}pyrimidin-4-yl)amino]-4-methyl-1H-pyrazol-3-yl}benzonitrile (Racemate)]	4
Cc1cc(C)n(-c2cc(Nc3nn(C)c(-c4ccc(Cl)cc4)c3C)ncn2)n1 [Example 355, N-[5-(4-chlorophenyl)-1,4-dimethyl-1H-pyrazol-3-yl]-6-(3,5-dimethyl-1H-pyrazol-1-yl)pyrimidin-4-amine]	20
Cc1cc(C(F)F)n(-c2cc(Nc3c(C)c(-c4ccc(C(F)(F)F)cc4)nn3CC3CC3)ncn2)n1 [Example 307, N-{1-(cyclopropylmethyl)-4-methyl-3-[4-(trifluoromethyl)phenyl]-1H-pyrazol-5-yl}-6-[5-(difluoromethyl)-3-methyl-1H-pyrazol-1-yl]pyrimidin-4-amine]	560
